# Measurements published in ChEMBL document CHEMBL4393686, “InCl3 mediated heteroarylation of indoles and their derivatization via CH activation strategy: Discovery of 2-(1H-indol-3-yl)-quinoxaline derivatives as a new class of PDE4B selective inhibitors for arthritis and/or multiple sclerosis” (Eur J Med Chem, 2019).
# The source made the active and inactive calls. The rule behind the calls is not given here.
# How the values were obtained:
# [1] = molecular target: T1, 3',5'-cyclic-AMP phosphodiesterase 4B (Homo sapiens, UniProt Q07343); assay: Inhibition of human recombinant His-tagged PDE4B expressed in Sf9 cells using cAMP as substrate at 10 uM preincubated with enzyme for 15 mins followed by substrate addition and incubated for 1 hr by PDELight HTS cAMP phosphodiesterase Kit based luminometry relative to control
# T1 sequence (Q07343 whole entry): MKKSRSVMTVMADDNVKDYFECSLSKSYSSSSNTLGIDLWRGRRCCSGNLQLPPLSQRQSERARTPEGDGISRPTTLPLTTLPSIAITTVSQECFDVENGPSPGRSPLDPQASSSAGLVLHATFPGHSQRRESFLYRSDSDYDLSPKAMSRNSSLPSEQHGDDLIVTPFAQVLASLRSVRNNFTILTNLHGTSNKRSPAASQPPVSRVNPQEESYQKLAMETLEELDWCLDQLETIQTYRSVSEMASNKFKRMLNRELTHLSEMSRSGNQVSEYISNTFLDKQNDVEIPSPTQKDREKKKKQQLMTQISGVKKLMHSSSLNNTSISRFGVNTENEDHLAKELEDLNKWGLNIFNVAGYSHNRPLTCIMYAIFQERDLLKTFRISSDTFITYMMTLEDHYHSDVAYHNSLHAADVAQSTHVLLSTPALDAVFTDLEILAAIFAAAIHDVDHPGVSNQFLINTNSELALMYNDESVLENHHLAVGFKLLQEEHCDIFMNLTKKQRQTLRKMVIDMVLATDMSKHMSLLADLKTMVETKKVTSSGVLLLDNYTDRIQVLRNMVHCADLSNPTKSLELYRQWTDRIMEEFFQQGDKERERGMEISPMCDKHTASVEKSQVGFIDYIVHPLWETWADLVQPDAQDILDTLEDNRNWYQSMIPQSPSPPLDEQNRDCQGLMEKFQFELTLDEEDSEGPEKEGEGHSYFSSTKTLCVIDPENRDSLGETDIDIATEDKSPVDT
# [2] = molecular target: T1, 3',5'-cyclic-AMP phosphodiesterase 4B; assay: Inhibition of recombinant His-tagged human PDE4B expressed in Sf9 cells using cAMP as substrate preincubated with enzyme for 15 mins followed by substrate addition and incubated for 1 hr by PDELight HTS cAMP phosphodiesterase Kit based luminometry
# Danio rerio = assay: Anti-sclerotic activity in MOG/CFA-induced zebra fish EAE model assessed as reduction in lesion score at 1 mg/kg, po measured for 7 days; assay type: functional, organism-based
# Homo sapiens [3] = species on record: Homo sapiens; assay: Selectivity index, ratio of IC50 for PDE4D2 (unknown origin) to IC50 for recombinant His-tagged human PDE4B expressed in sf9 cells using cAMP as substrate by PDELight HTS cAMP phosphodiesterase Kit based luminometry
# [4] = molecular target: 3',5'-cyclic-AMP phosphodiesterase 4D (Homo sapiens, UniProt Q08499); assay: Inhibition of PDE4D2 (unknown origin) using cAMP as substrate preincubated with enzyme for 15 mins followed by substrate addition and incubated for 1 hr by PDELight HTS cAMP phosphodiesterase Kit based luminometry
# Chain of 3',5'-cyclic-AMP phosphodiesterase 4D (Q08499 whole entry): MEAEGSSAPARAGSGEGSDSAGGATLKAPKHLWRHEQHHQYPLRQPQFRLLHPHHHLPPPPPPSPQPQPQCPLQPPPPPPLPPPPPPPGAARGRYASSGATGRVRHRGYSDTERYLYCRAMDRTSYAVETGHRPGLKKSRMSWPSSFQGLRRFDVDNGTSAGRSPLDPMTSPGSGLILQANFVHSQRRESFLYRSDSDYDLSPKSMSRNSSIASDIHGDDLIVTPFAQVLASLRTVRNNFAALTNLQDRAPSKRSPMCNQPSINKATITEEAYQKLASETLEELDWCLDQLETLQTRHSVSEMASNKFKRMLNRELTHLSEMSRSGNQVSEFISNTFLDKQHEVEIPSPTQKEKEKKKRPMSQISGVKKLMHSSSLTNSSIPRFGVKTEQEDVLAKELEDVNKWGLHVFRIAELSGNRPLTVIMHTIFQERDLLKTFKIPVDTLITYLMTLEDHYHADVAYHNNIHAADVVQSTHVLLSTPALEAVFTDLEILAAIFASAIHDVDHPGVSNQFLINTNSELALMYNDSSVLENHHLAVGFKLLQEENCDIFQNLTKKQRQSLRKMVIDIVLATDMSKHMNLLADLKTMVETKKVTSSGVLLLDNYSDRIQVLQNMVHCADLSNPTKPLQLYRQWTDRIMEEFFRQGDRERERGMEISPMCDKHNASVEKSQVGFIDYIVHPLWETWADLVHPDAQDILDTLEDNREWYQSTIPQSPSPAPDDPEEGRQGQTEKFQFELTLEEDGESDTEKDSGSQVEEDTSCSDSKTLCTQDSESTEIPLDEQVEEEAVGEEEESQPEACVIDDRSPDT
# Homo sapiens [5] = species on record: Homo sapiens; assay: Selectivity for recombinant His-tagged human PDE4B over PDE4C (unknown origin)
# PDE4C = PDE4C (Homo sapiens, UniProt Q08493); assay: Inhibition of PDE4C (unknown origin) at 100 uM using cAMP as substrate preincubated with enzyme for 15 mins followed by substrate addition and incubated for 1 hr by PDELight HTS cAMP phosphodiesterase Kit based luminometry relative to control; settings: probe cAMP
# Chain of PDE4C (Q08493 whole entry): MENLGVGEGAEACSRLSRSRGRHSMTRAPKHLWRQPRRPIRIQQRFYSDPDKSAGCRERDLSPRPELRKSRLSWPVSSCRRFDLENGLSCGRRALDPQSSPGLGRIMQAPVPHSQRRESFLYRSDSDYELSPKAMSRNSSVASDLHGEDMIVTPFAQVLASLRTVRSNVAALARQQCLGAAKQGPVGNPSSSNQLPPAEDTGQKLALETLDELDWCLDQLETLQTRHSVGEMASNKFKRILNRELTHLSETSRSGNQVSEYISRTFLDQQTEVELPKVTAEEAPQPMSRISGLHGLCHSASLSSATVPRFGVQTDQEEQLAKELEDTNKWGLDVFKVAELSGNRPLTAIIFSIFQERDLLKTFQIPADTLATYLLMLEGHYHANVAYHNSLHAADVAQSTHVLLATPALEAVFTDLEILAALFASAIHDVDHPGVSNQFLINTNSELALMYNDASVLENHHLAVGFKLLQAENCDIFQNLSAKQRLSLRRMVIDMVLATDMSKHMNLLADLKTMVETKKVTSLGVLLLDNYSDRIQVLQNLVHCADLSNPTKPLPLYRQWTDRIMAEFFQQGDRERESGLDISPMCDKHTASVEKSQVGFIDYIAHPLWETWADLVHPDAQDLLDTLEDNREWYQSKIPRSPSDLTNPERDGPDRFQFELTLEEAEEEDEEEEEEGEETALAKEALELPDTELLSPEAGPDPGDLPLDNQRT
# Rattus norvegicus = assay: Antiarthritic activity in complete Freund's adjuvant-induced Wistar rat arthritis model assessed as reduction in paw volume at 2 mg/kg, ip administered from 11th day to 20th day by vernier caliper analysis; assay type: functional, organism-based
# [6] = Selectivity for recombinant His-tagged PDE4B (unknown origin) expressed in Sf9 cells over PDE4D2 (unknown origin); settings: Homo sapiens
# [7] = molecular target: T1, 3',5'-cyclic-AMP phosphodiesterase 4B; assay: Inhibition of recombinant His-tagged PDE4B (unknown origin) expressed in Sf9 cells using cAMP as substrate preincubated for 15 mins followed by substrate addition and incubated for 1 hr by PDELight HTS cAMP phosphodiesterase Kit based luminometry
Structure (SMILES),inhibition [1],IC50 [2],Ratio IC50 (Homo sapiens [3]),IC50 [4],further results
COC(=O)/C=C/c1[nH]c2ccccc2c1-c1nc2ccccc2nc1Cl,> 75%,3.88 µM,–,–,–
COC(=O)/C=C/c1c(-c2nc3ccccc3nc2Cl)c2cc(OC)ccc2n1C(C)C,> 75%,5.97 µM,–,–,–
CCCCCCCCc1ccc(CCC(N)(CO)CO)cc1,–,–,–,–,inhibition (Danio rerio): Active
COc1ccc2c(c1)c(-c1nc3ccccc3nc1Cl)cn2C(C)C,> 75%,0.44 µM,11.4,5.02 µM,–
CCOC(=O)Cn1cc(-c2nc3ccccc3nc2Cl)c2cc(OC)ccc21,> 75%,0.21 µM,72,15.2 µM,"Selectivity ratio (Homo sapiens [5]): > 250; inhibition at 1 h, 100 µM (PDE4C): 20 to 30%"
CC(C)n1cc(-c2nc3ccccc3nc2Cl)c2cc(Br)ccc21,> 75%,9.74 µM,–,–,–
CCC(C)n1cc(-c2nc3ccccc3nc2Cl)c2cc(OC)ccc21 (centres undefined),> 75%,1.04 µM,4.75,4.93 µM,–
CN(Cc1cnc2nc(N)nc(N)c2n1)c1ccc(C(=O)N[C@@H](CCC(=O)O)C(=O)O)cc1,–,–,–,–,inhibition (Rattus norvegicus): Active
Cc1cc2c(s1)N(Cc1cc3cc(Br)ccc3n1S(C)(=O)=O)c1ccccc1N=C2N1CCN(C)CC1,–,–,–,–,Selectivity ratio [6]: > 10; IC50 [7]: 1.1 µM
